Drawing on paper PMC10662156 (Scientific Reports, 2023), this text covers IC50 and inhibition for 3 compounds.

The term IC50 denotes the concentration needed to halve the response being measured. As usually defined, the inhibition is the percentage by which the read-out fell short of the control.

Test [1] addresses T1, ALDH2 (Homo sapiens, UniProt P05091).
T1 sequence (P05091 18-517): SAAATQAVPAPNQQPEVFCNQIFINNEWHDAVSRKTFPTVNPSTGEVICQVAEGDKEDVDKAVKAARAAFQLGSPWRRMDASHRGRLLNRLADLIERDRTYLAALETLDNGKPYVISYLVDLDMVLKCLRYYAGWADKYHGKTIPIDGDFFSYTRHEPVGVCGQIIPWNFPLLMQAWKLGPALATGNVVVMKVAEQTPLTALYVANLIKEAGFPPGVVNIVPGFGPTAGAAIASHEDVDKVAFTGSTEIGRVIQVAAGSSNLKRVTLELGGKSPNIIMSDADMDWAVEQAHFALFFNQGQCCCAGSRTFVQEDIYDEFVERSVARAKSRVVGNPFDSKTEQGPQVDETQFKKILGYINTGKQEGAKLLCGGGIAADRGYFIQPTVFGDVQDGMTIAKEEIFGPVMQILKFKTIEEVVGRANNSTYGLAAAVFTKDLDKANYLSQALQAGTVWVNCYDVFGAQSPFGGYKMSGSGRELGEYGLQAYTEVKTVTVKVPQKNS
The test is described as follows: QuantiChrom ALDH inhibitor screening kit, diaphorase/MTT-coupled colorimetric assay ([…] nm), recombinant enzyme. Format: biochemical. A general note: Tetrazolium assays rely on reduction of a dye to a coloured formazan, in cell work by metabolically active cells.

Test [2] deals with T1, ALDH2. The test is described as follows: QuantiChrom ALDH inhibitor screening kit, % inhibition at […], recombinant enzyme. Format: biochemical.

In the case of `O=c1c(O)c(-c2ccc(O)c(O)c2)oc2cc(O)cc(O)c12` [compound 2, quercetin], at ALDH2 [1], the IC50 is 26.5 µM.
As to `COc1ccc(-c2oc3cc(O)cc(O)c3c(=O)c2O)cc1O` [compound 8, tamarixetin], at ALDH2 [2], the inhibition at 20 µM amounted to 25.8 ± 1.31%.
As for `O=C(O)[C@H]1O[C@@H](Oc2c(-c3ccc(O)c(O)c3)oc3cc(O)cc(O)c3c2=O)[C@H](O)[C@@H](O)[C@@H]1O` [compound 9, quercetin-3-glucuronide], the IC50 at ALDH2 [1] is 9.62 µM.
